Test results taken from paper PMC11358882, “Neuroprotective Effects of Phenolic Constituents from Drynariae Rhizoma” (Pharmaceuticals, 2024).

What was measured:
AChE from electric eel = molecular target: T1, AChE from electric eel (Electrophorus electricus, UniProt O42275); test: biochemical; format: biochemical; settings: isolated compounds; mean ± SD, n = 3; ND = no detection using test concentration; read-out: IC50 AChE
T1 construct: purchased Sigma-Aldrich Co., St. Louis, USA
Experimental: (§1) The AChE- and BChE-inhibitory, MTT, and Th T assays were analyzed using a UV–visible (VIS) spectrophotometer (Biotek, EPOCH2, Winooski, VT, USA), ensuring accurate measurements. For BACE1- and MAO-B-inhibitory assays, a multimode microplate reader (SpectraMax M3, Molecular Devices, San Jose, CA, USA) was employed, providing precise readings. Analytical-grade DMSO from DEAJUNG Chemical, Korea, served as a solvent in the bioassays. Reagents and solvents, including AChE from electric eel, acetylthiocholine iodide (ATCh), BChE from equine serum, S-butyrylthiocholine iodide (BTCh), 5,5′-dithiobis [2-nitrobenzoic acid] […] Additionally, the BACE1-inhibitory assay utilized the BACE1 (β-secretase) FRET assay kit from PanVera® Corporation, Madison, USA, while the MAO-B-inhibitory assay employed the MAO-B Inhibitor Screening Kit (Fluorometric) ab284511 from Abcam plc Co., Cambridge, UK.
(§2) The inhibitory activities against cholinesterases (AChE and BChE) were evaluated using a spectrophotometric method previously developed by Ellman et al.. Specifically, ATCh and BTCh were used as substrates to measure the inhibitory effects on AChE and BChE, respectively. The assay mixture consisted of 140 μL of 0.1 M sodium phosphate buffer at pH 7.8, 20 μL of a 0.38 U/mL solution of either AChE or BChE, and 20 μL of the test sample solution. This mixture was thoroughly mixed and then incubated at room temperature for 15 min. […] Reactions were initiated by adding 10 μL of 0.5 mM DTNB and 10 μL of either 0.6 mM ATCh or BTCh. ChE-inhibitory activity was monitored by measuring the formation of the yellow 5-thio-2-nitrobenzoate anion at 412 nm over 15 min (Epoch, BioTek, Winooski, VT, USA), resulting from the reaction of DTNB and thiocholine released from ATCh or BTCh. All reactions were conducted in 96-well microplates and performed in triplicate. The percentage of inhibition (%) was determined using the following formula: inhibition (%)={(Ac−As)/Ac}×100 , where Ac represents the enzyme activity in the absence of the test sample, and As represents the enzyme activity in the presence of the test sample. The ChE-inhibitory activities of each sample were quantified in terms of IC50, which was calculated from the log–dose inhibition curve.

BChE from equine serum = molecular target: T2, BChE from equine serum (Equus caballus, UniProt P81908); test: biochemical; format: biochemical; settings: isolated compounds; mean ± SD, n = 3; ND = no detection using test concentration; read-out: IC50 BChE
T2 construct: BChE from equine serum; purchased Sigma-Aldrich Co., St. Louis, USA; host or cells: equine serum
Experimental: as §1, §2

sAPPβ = test: Western blot of sAPPβ levels in APP-CHO cells; format: cell-based, Chinese hamster; settings: 1.0 μM, 24 h
Experimental: APP-CHO cells were seeded in six-well plates at a density of 6 × 10^5 cells/1000 μL of medium per well and incubated at 37 °C overnight for cell attachment. Then, the medium was replaced with FBS-free RPMI 1640 for 1 h, followed by treatment with test samples at 37 °C. After 24 h, the cells were washed with PBS and lysed in Laemmli sample buffer. The collected cell lysates were boiled at 100 °C for 10 min. For Western blot analysis, 20 μg of proteins were separated by 7.5% SDS-PAGE and transferred to a PVDF membrane using Trans-Blot® Turbo TM (Bio-Rad, Hercules, CA, USA). The membrane was blocked with 5% skim milk in PBS for 1 h and incubated with primary antibodies overnight at 4 °C. The primary antibodies used were sAPPβ antibody, BACE1 antibody, and α-tubulin antibody diluted at 1:1000, 1:1000, and 1:25,000, respectively. After washing with PBS-T (0.1% Tween 20 in PBS) three times for 10 min each, secondary antibodies, diluted to 1:2500, were incubated for 1 h. Protein detection was performed using ECL solution reagent and protein visualization (ChemiDoc^TM XRS+., Bio-Rad, Hercules, CA, USA). The signal intensity of the bands was quantified and normalized to the signal intensity of the α-tubulin band. Results were expressed as a percentage of DMSO-treated control.

Aβ1-42 [1] = molecular target: T3, Aβ1-42 (Homo sapiens, UniProt P05067); test: Thioflavin T assay, Aβ aggregation; format: biochemical; settings: 24 h, Aβ1-42 20 μM
T3 construct: Aβ1-42 used for the Th T assay was purchased from GL Biochem, Shanghai, China; purchased GL Biochem, Shanghai, China
Experimental: (§3) The Th T assay was conducted to assess the aggregation of Aβ into oligomers and fibrils. Aβ1-42 was dissolved in DMSO at a concentration of 1 mg/mL, and test samples were also dissolved in DMSO. Aβ1-42 (20 μM) was incubated with various concentrations of test samples at 37 °C for 24 h to evaluate the effects of test samples on Aβ aggregation. Subsequently, 3 μM of Th T was added, and fluorescence was measured after 30 min using an E-max precision microplate reader with excitation at 442 nm and emission at 485 nm (Epoch, BioTek, Winooski, VT, USA). Aβ treated with DMSO only served as a control, and each assay was performed in triplicate. Then, the Th T assay was performed to assess the effects of test samples on the disaggregation of preformed Aβ aggregates. Briefly, 20 μM of Aβ1-42 was incubated at 37 °C for 24 h. Various concentrations of test samples were then added and incubated at 37 °C for an additional 24 h. Subsequently, 3 μM of Th T was added, and fluorescence was measured after 30 min using an E-max precision microplate reader with excitation at 442 nm and emission at 485 nm (Epoch, BioTek, Winooski, VT, USA). Aβ treated with DMSO only served as a control, and each assay was performed in triplicate.

Aβ1-42 [2] = molecular target: T3, Aβ1-42; test: Thioflavin T assay, disaggregation of preformed Aβ aggregates; format: biochemical; settings: 24 h with Aβ pre-aggregated for 24 h
Experimental: as §3

T3 sequence (P05067 672-713 limits assumed): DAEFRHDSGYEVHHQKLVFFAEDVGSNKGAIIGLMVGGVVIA
T2 sequence (P81908 whole entry): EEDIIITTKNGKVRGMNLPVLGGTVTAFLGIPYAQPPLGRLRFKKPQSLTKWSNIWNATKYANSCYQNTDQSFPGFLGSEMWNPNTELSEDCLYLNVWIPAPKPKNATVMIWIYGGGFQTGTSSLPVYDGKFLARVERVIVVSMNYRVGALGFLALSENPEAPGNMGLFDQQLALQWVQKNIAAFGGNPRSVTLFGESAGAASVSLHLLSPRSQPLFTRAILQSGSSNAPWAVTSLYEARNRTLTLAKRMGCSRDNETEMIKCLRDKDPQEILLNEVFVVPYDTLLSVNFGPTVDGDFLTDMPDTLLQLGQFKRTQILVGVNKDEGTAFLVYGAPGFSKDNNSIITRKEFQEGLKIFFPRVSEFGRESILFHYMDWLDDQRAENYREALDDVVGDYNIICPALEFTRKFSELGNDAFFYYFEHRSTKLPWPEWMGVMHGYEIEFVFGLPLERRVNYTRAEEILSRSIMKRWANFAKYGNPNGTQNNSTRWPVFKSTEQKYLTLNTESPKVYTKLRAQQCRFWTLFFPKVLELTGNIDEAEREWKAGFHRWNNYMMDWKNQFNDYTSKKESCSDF
T1 sequence (O42275 24-633): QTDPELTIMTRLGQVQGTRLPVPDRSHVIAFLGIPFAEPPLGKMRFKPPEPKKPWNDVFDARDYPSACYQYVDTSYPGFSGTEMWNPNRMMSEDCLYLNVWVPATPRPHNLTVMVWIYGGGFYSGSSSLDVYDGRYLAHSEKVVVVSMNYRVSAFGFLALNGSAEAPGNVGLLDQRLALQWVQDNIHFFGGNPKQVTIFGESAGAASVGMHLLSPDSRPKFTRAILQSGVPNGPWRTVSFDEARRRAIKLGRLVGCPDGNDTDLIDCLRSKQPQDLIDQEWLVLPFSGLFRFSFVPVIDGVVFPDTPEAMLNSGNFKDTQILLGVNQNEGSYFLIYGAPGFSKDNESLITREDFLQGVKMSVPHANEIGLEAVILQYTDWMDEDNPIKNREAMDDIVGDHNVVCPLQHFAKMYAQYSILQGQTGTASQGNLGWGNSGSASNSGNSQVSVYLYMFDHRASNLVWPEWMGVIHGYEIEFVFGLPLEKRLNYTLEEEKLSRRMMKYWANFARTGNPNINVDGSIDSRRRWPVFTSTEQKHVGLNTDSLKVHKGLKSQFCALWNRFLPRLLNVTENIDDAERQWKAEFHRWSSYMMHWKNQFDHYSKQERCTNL

SMILES	IC50 (AChE from electric eel) [µM]	IC50 (BChE from equine serum) [µM]	reduction of sAPPβ levels compared to DMSO-treated controls (sAPPβ) [%]	decrease of Aβ aggregation relative to DMSO-treated control (Aβ1-42 [1]; 1.0 μM)	degradation of preformed Aβ aggregates (Aβ1-42 [2]; 1.0 μM)	Aβ aggregation reduced to % of the levels in the DMSO-treated control (Aβ1-42 [1]; 0.5 μM) [%]	decrease of Aβ aggregation relative to DMSO-treated control (Aβ1-42 [1]; 0.5 μM) [%]	Aβ aggregation reduced to % of the levels in the DMSO-treated control (Aβ1-42 [1]; 1.0 μM)	degradation of preformed Aβ aggregates (Aβ1-42 [2]; 0.5 μM) [%]
C[C@@H]1O[C@@H](Oc2c(-c3ccc(O)cc3)oc3cc(O[C@@H]4O[C@H](CO)[C@@H](O)[C@H](O)[C@H]4O)cc(O)c3c2=O)[C@H](O)[C@H](O)[C@H]1O [Compound 6, kaempferol 3-O-rhamnoside 7-O-glucoside]	353.43 ± 0.32	32.6 ± 5.66	30	approximately 40%	approximately 45%	–	–	–	–
O=c1c(O[C@@H]2O[C@H](CO)[C@@H](O)[C@H](O)[C@H]2O)c(-c2ccc(O)cc2)oc2cc(O[C@@H]3O[C@@H](CO)[C@H](O)[C@H]3O)cc(O)c12 [Compound 7, kaempferol 3-o-b-d-glucopyranoside-7-o-a-L-arabinofuranoside]	47.33 ± 0.22	28.8 ± 0.31	30	~80%	–	~55	55	approximately 80%	~60
